Results as given in ChEMBL document CHEMBL1201862, “PubChem BioAssay data set” (2004).
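Tested at 5 concentrations; 48 h exposure; 96-well plates; endpoints linearly interpolated, else capped at highest concentration. The concentration for 50% growth inhibition is given as GI50.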 Activity calls are given as the source filed them. Cut-off read from the data, not from the text of the source: active = GI50 up to about 1.1 µM and inactive = higher.

Legend:
Test in all cases: NCI tumour cell line growth inhibition, 48 h
[1] = test system: RXF 393
[2] = test system: CAKI-1
[3] = test system: SK-MEL-2
[4] = test system: U-251
[5] = test system: SW-620
[6] = test system: SN12C
[7] = test system: OVCAR-8
[8] = test system: A549
[9] = test system: MOLT-4
[10] = test system: EKVX
[11] = test system: HCT-116
[12] = test system: NCI-H23
[13] = test system: A498
[14] = test system: HCT-15
[15] = test system: 786-0
[16] = test system: SR
[17] = test system: LOX IMVI
[18] = test system: UACC-257
[19] = test system: SNB-75
[20] = test system: M14
[21] = test system: SK-MEL-5
[22] = test system: NCI-H522
[23] = test system: OVCAR-5
[24] = test system: NCI-H226
[25] = test system: SNB-19
[26] = test system: SF-539
[27] = test system: CCRF-CEM
[28] = test system: T47D
[29] = test system: HOP-92
[30] = test system: Hs-578T
[31] = test system: HT-29
[32] = test system: BT-549
[33] = test system: K562
[34] = test system: UO-31
[35] = test system: UACC-62
[36] = test system: HOP-62
[37] = test system: OVCAR-4
[38] = test system: SF-268
[39] = test system: ACHN
[40] = test system: OVCAR-3
[41] = test system: MDA-MB-435
[42] = test system: HCC 2998
[43] = test system: TK-10
[44] = test system: SK-OV-3
[45] = test system: RPMI-8226
[46] = test system: Malme-3M
[47] = test system: HL-60
[48] = test system: IGROV-1
[49] = test system: NCI/ADR-RES
[50] = test system: MDA-N
[51] = test system: SF-295
[52] = test system: MDA-MB-231
[53] = test system: DU-145
[54] = test system: KM12
[55] = test system: MCF7
[56] = test system: PC-3
[57] = test system: COLO 205
[58] = test system: SK-MEL-28
[59] = test system: NCI-H460

Q: Which GI50 [1] does the source give for N#Cc1c(C#N)c(-c2ccccc2)n(/N=C\c2ccccc2)c1N here?
A: 17.9 µM (inactive)

Q: And the GI50 [2]?
A: 18.3 µM (inactive)

Q: What about the GI50 [3] of the same compound?
A: 22.2 µM (inactive)

Q: And the GI50 [4]?
A: 16.5 µM (inactive)

Q: And the GI50 [5]?
A: 62.4 µM (inactive)

Q: What about the GI50 [6] of the same compound?
A: 47 µM (inactive)

Q: What about the GI50 [7] of the same compound?
A: 18 µM (inactive)

Q: What about the GI50 [8] of the same compound?
A: 13 µM (inactive)

Q: And the GI50 [9]?
A: 5.27 µM (inactive)

Q: What about the GI50 [10] of the same compound?
A: 13.6 µM (inactive)

Q: What about the GI50 [11] of the same compound?
A: 29.4 µM (inactive)

Q: And the GI50 [12]?
A: 24.4 µM (inactive)

Q: And the GI50 [13]?
A: 23.8 µM (inactive)

Q: And the GI50 [14]?
A: 30.6 µM

Q: And the GI50 [15]?
A: 28.1 µM (inactive)

Q: And the GI50 [16]?
A: 10.4 µM (inactive)

Q: What about the GI50 [17] of the same compound?
A: 8.02 µM (inactive)

Q: And the GI50 [18]?
A: 17.3 µM (inactive)

Q: What about the GI50 [19] of the same compound?
A: 19.1 µM (inactive)

Q: What about the GI50 [20] of the same compound?
A: 24.8 µM (inactive)

Q: What about the GI50 [21] of the same compound?
A: 11.4 µM (inactive)

Q: And the GI50 [22]?
A: 11.6 µM (inactive)

Q: And the GI50 [23]?
A: 29 µM (inactive)

Q: What about the GI50 [24] of the same compound?
A: 20.8 µM (inactive)

Q: What about the GI50 [25] of the same compound?
A: 30.8 µM (inactive)

Q: And the GI50 [26]?
A: 15.9 µM (inactive)

Q: What about the GI50 [27] of the same compound?
A: 12.3 µM (inactive)

Q: And the GI50 [28]?
A: 3.37 µM (inactive)

Q: What about the GI50 [29] of the same compound?
A: 20.8 µM (inactive)

Q: What about the GI50 [30] of the same compound?
A: 15.9 µM (inactive)

Q: And the GI50 [31]?
A: 26.1 µM (inactive)

Q: What about the GI50 [32] of the same compound?
A: 18.7 µM (inactive)

Q: What about the GI50 [33] of the same compound?
A: 13.2 µM (inactive)

Q: What about the GI50 [34] of the same compound?
A: 19 µM (inactive)

Q: What about the GI50 [35] of the same compound?
A: 12.5 µM (inactive)

Q: What about the GI50 [36] of the same compound?
A: 31.3 µM (inactive)

Q: What about the GI50 [37] of the same compound?
A: 12.9 µM (inactive)

Q: And the GI50 [38]?
A: 28.8 µM (inactive)

Q: And the GI50 [39]?
A: 14.2 µM (inactive)

Q: And the GI50 [40]?
A: 12.9 µM (inactive)

Q: And the GI50 [41]?
A: 45.4 µM (inactive)

Q: What about the GI50 [42] of the same compound?
A: 19.7 µM (inactive)

Q: And the GI50 [43]?
A: 29.4 µM (inactive)

Q: What about the GI50 [44] of the same compound?
A: 14.1 µM (inactive)

Q: And the GI50 [45]?
A: 3.46 µM (inactive)

Q: What about the GI50 [46] of the same compound?
A: 29.9 µM (inactive)

Q: And the GI50 [47]?
A: 16.1 µM (inactive)

Q: And the GI50 [48]?
A: 15.6 µM (inactive)

Q: What about the GI50 [49] of the same compound?
A: 11.2 µM (inactive)

Q: And the GI50 [50]?
A: 36.1 µM (inactive)

Q: What about the GI50 [51] of the same compound?
A: 7.4 µM (inactive)

Q: And the GI50 [52]?
A: 16 µM (inactive)

Q: What about the GI50 [53] of the same compound?
A: 35.2 µM (inactive)

Q: What about the GI50 [54] of the same compound?
A: 26.9 µM (inactive)

Q: And the GI50 [55]?
A: 11.8 µM (inactive)

Q: What about the GI50 [56] of the same compound?
A: 14.4 µM (inactive)

Q: What about the GI50 [57] of the same compound?
A: 22.5 µM (inactive)

Q: What does the source list for CC1CC[C@@]2(OC1)OC1C[C@H]3[C@@H]4CC=C5CC(OC6OC(CO)C(OC7OC(CO)C(O)C(OC8OCC(O)C(O)C8O)C7OC7OC(CO)C(OC8OC(C)C(OC9OC(C)C(O)C(O)C9O)C(O)C8O)C(O)C7O)C(O)C6O)CCC5(C)[C@H]4CCC3(C)C1[C@@H]2C (some centres undefined)?
A: GI50 [1]: 6.34 µM (inactive); GI50 [2]: 7.55 µM (inactive); GI50 [3]: 6.71 µM (inactive); GI50 [4]: 9.04 µM (inactive); GI50 [5]: 11.4 µM (inactive); GI50 [6]: 9.35 µM (inactive); GI50 [7]: 9.95 µM (inactive); GI50 [8]: 7.48 µM (inactive); GI50 [9]: 11.6 µM (inactive); GI50 [10]: 8.28 µM (inactive); GI50 [11]: 8.47 µM (inactive); GI50 [12]: 8.97 µM (inactive); GI50 [13]: 2.02 µM (inactive); GI50 [14]: 9.64 µM; GI50 [15]: 2.37 µM (inactive); GI50 [16]: 0.495 µM (active); GI50 [17]: 8.99 µM (inactive); GI50 [18]: 9.35 µM (inactive); GI50 [58]: 11.2 µM (inactive); GI50 [20]: 4.28 µM (inactive); GI50 [21]: 8.69 µM (inactive); GI50 [22]: 8.87 µM (inactive); GI50 [23]: 7.46 µM (inactive); GI50 [24]: 9.08 µM (inactive); GI50 [25]: 5.61 µM (inactive); GI50 [26]: 6.08 µM (inactive); GI50 [27]: 10.4 µM (inactive); GI50 [28]: 9.29 µM (inactive); GI50 [29]: 7.46 µM (inactive); GI50 [30]: 9.29 µM (inactive); GI50 [31]: 8.17 µM (inactive); GI50 [32]: 9.2 µM (inactive); GI50 [33]: 8.05 µM (inactive); GI50 [35]: 9.71 µM (inactive); GI50 [36]: 7.13 µM (inactive); GI50 [37]: 4.21 µM (inactive); GI50 [38]: 9.71 µM (inactive); GI50 [39]: 2.5 µM (inactive); GI50 [40]: 10.8 µM (inactive); GI50 [41]: 9.06 µM (inactive); GI50 [42]: 7.08 µM (inactive); GI50 [43]: 8.59 µM (inactive); GI50 [44]: 9.23 µM (inactive); GI50 [45]: 10.8 µM (inactive); GI50 [46]: 10.6 µM (inactive); GI50 [47]: 8.99 µM (inactive); GI50 [48]: 8.49 µM (inactive); GI50 [49]: 9.48 µM (inactive); GI50 [50]: 9.02 µM (inactive); GI50 [51]: 6.71 µM (inactive); GI50 [52]: 5.36 µM (inactive); GI50 [53]: 7.87 µM (inactive); GI50 [54]: 9.33 µM (inactive); GI50 [59]: 9.93 µM (inactive); GI50 [55]: 14.1 µM (inactive); GI50 [56]: 5.32 µM (inactive); GI50 [57]: 8.22 µM (inactive)
